According to article PMC4091617 (Chemical communications (Cambridge, England), 2011):

Molecular target: T1, DhpI (Streptomyces luridus, UniProt D7PC21)
T1 sequence (D7PC21 1-218): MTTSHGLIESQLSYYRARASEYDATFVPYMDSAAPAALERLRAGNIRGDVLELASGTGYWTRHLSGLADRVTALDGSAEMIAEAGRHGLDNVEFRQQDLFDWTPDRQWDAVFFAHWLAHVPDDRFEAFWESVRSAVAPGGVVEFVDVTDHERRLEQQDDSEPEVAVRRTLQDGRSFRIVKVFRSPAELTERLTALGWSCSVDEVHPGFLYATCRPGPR
Assay: in vitro O-methylation
Assay type: biochemical
Details: SAM as methyl donor; Pfs present

Structure (SMILES): CC(=O)N(O)CCCP(=O)(O)O [FR-900098]
- in vitro O-methylation: These four phosphonates were used as the basis; each was methylated by DhpI
